{"source": "patent EP0195316A1", "about": "“Quinolonecarboxylic acid derivatives” (KYORIN PHARMACEUTICAL CO., LTD., priority 1985, dated 1986)", "key": {"[1]": {"system": "Bacteroides fragilis GM 7000", "experiment": "MIC, in vitro antibacterial activity (standard strains)", "type": "cell-based", "conditions": "GM7000; Bacteroides fragilis GM 7000, 10^6 cells/ml, Gram -"}, "S. aureus 209 P": {"system": "S. aureus 209 P", "type": "cell-based"}, "[2]": {"experiment": "Repeated oral administration to dog (reference compound)", "type": "in vivo"}, "P. aeruginosa IID 1210": {"system": "P. aeruginosa IID 1210", "experiment": "In vivo antibacterial activity against systemic infections in mice", "conditions": "Pseudomonas aeruginosa, IID1210; P. aeruginosa IID 1210 systemic infection (i.p.), male ICR mice, oral administration an hour after infection; read-out: ED50", "method": "(§1) The infections were produced by intraperitoneal injection of suspension of the bacterial cells. The compounds were administered orally at an hour after the injection. Five male ICR mice were used for each dosage. […] The efficacy of the present compound are shown in Table 4 in comparison with those of the reference compounds."}, "S. aureus Smith": {"system": "S. aureus Smith", "experiment": "In vivo antibacterial activity against systemic infections in mice", "conditions": "Staphylococcus aureus; S. aureus Smith systemic infection (i.p.), male ICR mice, oral administration an hour after infection; read-out: ED50", "method": "as §1"}, "E. coli ML 4707": {"system": "E. coli ML 4707", "experiment": "In vivo antibacterial activity against systemic infections in mice", "conditions": "Escherichia coli, ML4707; E. coli ML 4707 systemic infection (i.p.), male ICR mice, oral administration an hour after infection; read-out: ED50", "method": "as §1"}, "S. pneumoniae S-4288": {"system": "S. pneumoniae S-4288", "experiment": "In vivo antibacterial activity against systemic infections in mice", "conditions": "Streptococcus pneumoniae, S4288; S. pneumoniae S-4288 systemic infection (i.p.), male ICR mice, oral administration an hour after infection; read-out: ED50", "method": "as §1"}, "Subacute toxicity in dog": {"experiment": "Subacute toxicity in dog", "type": "in vivo", "conditions": "beagle dogs, oral, 20 mg/kg/day for 8 days then 50 mg/kg/day for 7 days", "method": "Subacute toxicity study of the present compound was carried out in beagledogs (10 weeks old, n=3). To animals 20 mg/kg/day of the present compound for 8 days and after that 50 mg/kg/day for 7 days was administered orally."}, "in vivo [3]": {"experiment": "in vivo", "conditions": "rat, po, 10 mg/kg"}, "[4]": {"experiment": "Absorption and metabolism in dogs (HPLC)", "type": "in vivo, beagle dogs", "method": "A 2 mg dose of the present compound was administered to beagle dogs orally or intravenously, and the serum levels were measured by HPLC (High-performance liquid chromatography)."}, "[5]": {"system": "nalidixic acid-resistant Salmonella typhimurium TA98 strain (nal^r)", "experiment": "Mutagenicity, reverse mutation assay", "text": "As for antibacterial agents, assessment of mutagenicity using bacteria is somewhat difficult because of their activity on the test bacteria."}, "in vivo [6]": {"experiment": "in vivo", "conditions": "mouse, iv"}}, "note": "Read-outs that look alike come from different tables or passages of the source. Marks after values point to notes of the source that are not given here.", "data": [{"smiles": "CC1CN(c2c(F)cc3c(=O)c(C(=O)O)cn(C4CC4)c3c2Cl)CCN1", "note": "(centres unmarked) [Ref.2, 8-Chloro-1-cyclopropyl-6-fluoro-1,4-dihydro-7-(3-methyl-1-piperazinyl)-4-oxo-3-quinolinecarboxylic acid]", "values": [{"measurement": "MIC", "setting": "[1]", "value": 0.39, "unit": "µg/mL"}, {"measurement": "Frequency of spontaneous resistant mutants", "setting": "S. aureus 209 P; Conc. of Drugs 4MIC", "value": "5.1 × 10^-8"}, {"measurement": "GPT and TTT (hepatoxicity)", "setting": "[2]", "value": "marked elevation of GPT and decrease of TTT"}, {"measurement": "side effect on central nervous system", "setting": "[2]", "value": "strong vomiting and clonic convulsion"}]}, {"smiles": "NC1CCN(c2c(F)cc3c(=O)c(C(=O)O)cn(C4CC4)c3c2Cl)C1", "note": "(stereo not drawn) [Example 25, 7-(3-Amino-l-pyrrolidinyl)-8-chloro-l-cyclopropyl-6-fluoro-1,4-dihydro-4-oxo-3-quinolinecarboxylic acid]", "values": [{"measurement": "ED50", "setting": "P. aeruginosa IID 1210", "value": 2.9, "unit": "mg/kg"}, {"measurement": "ED50", "setting": "S. aureus Smith", "value": 2, "unit": "mg/kg"}, {"measurement": "ED50", "setting": "E. coli ML 4707", "value": 0.9, "unit": "mg/kg"}, {"measurement": "ED50", "setting": "S. pneumoniae S-4288", "value": 13, "unit": "mg/kg"}, {"measurement": "MIC", "setting": "[1]", "value": 0.1, "unit": "µg/mL"}, {"measurement": "changes in body weight and general conditions", "setting": "Subacute toxicity in dog", "value": "No remarkable changes in body weight and general conditions"}, {"measurement": "hematological examination and serum biochemical analysis", "setting": "Subacute toxicity in dog", "value": "no abnormality with regard to hematological examination and serum biochemical analysis"}, {"measurement": "dose excreted at 24 h", "setting": "in vivo [3]; Excretion rate (% of dose) Bile", "value": 13.4, "unit": "%"}, {"measurement": "dose excreted at 24 h", "setting": "in vivo [3]; Excretion rate (% of dose) Urine", "value": 21.7, "unit": "%"}, {"measurement": "Frequency of spontaneous resistant mutants", "setting": "S. aureus 209 P; Conc. of Drugs 2MIC", "value": "2.9 × 10^-8"}, {"measurement": "Frequency of spontaneous resistant mutants", "setting": "S. aureus 209 P; Conc. of Drugs 4MIC", "value": "<2.9 × 10^-9"}, {"measurement": "urinary metabolites", "setting": "[4]; animals (dogs section)", "value": "may be hardly metabolized"}, {"measurement": "Serum levels by oral route versus intravenous route", "setting": "[4]; beagle dogs, 2 mg dose, HPLC", "value": "almost equal to those by intravenous route"}, {"measurement": "His^+ revertants per plate", "setting": "[5]; 0.005 µg/plate, S9-mix +", "value": 60}, {"measurement": "His^+ revertants per plate", "setting": "[5]; 0.005 µg/plate, S9-mix -", "value": 28}, {"measurement": "His^+ revertants per plate", "setting": "[5]; 0.01 µg/plate, S9-mix +", "value": 48}, {"measurement": "His^+ revertants per plate", "setting": "[5]; 0.01 µg/plate, S9-mix -", "value": 29}, {"measurement": "His^+ revertants per plate", "setting": "[5]; 0.05 µg/plate, S9-mix +", "value": "39*"}, {"measurement": "His^+ revertants per plate", "setting": "[5]; 0.05 µg/plate, S9-mix -", "value": 26}, {"measurement": "His^+ revertants per plate", "setting": "[5]; 0.1 µg/plate, S9-mix +", "value": "6*"}, {"measurement": "His^+ revertants per plate", "setting": "[5]; 0.1 µg/plate, S9-mix -", "value": "16*"}, {"measurement": "His^+ revertants per plate", "setting": "[5]; 0.5 µg/plate, S9-mix +", "value": "0*"}, {"measurement": "His^+ revertants per plate", "setting": "[5]; 0.5 µg/plate, S9-mix -", "value": "0*"}, {"measurement": "His revertant colonies compared with the solvent control", "setting": "[5]; within measurable concentration, with and without the drug metabolic activation", "value": "no increment of His revertant colonies"}, {"measurement": "LD50", "setting": "in vivo [6]", "value": 242, "unit": "mg/kg"}]}]}
